Measurements published in patent US7880010B2, “Crystalline forms of a dimethylphenyl compound” (Theravance, Inc., priority 2006, dated 2011).

Key:
[1] = target: T1, human β1 adrenergic receptor (Homo sapiens, UniProt P08588); assay: Radioligand binding assay for human β adrenergic receptors; conditions: [3H]-dihydroalprenolol 1 nM
T1 construct: expressed in transfected cells; host or cells: HEK-293
Method: (§1) Human embryonic kidney (HEK-293) cell lines stably expressing cloned human β1 and β2 adrenergic receptors or Chinese hamster ovarian (CHO) cell lines stably expressing cloned human β3 adrenergic receptors were grown to near confluency in DMEM or Hams F-12 media with 10% FBS in the presence of 500 μg/mL Geneticin. The cell monolayer was lifted with 2 mM EDTA in PBS. Cells were pelleted by centrifugation at 1,000 rpm, and cell pellets were either stored frozen at −80° C. or membranes were prepared immediately for use. For preparation of β1 and β2 receptor expressing membranes, cell pellets were re-suspended in lysis buffer (10 mM HEPES/HCl, 10 mM EDTA, pH 7.4 at 4° C.) and homogenized using a tight-fitting Dounce glass homogenizer (30 strokes) on ice. […] The protein concentration of the membrane suspension was determined by the methods described in Lowry et al., 1951, Journal of Biological Chemistry, 193, 265; and Bradford, Analytical Biochemistry, 1976, 72, 248-54. […]
(§2) Binding assays were performed in 96-well microtiter plates in a total assay volume of 100 μL with 10-15 μg of membrane protein containing the human β1, β2 or β3 adrenergic receptors in assay buffer (75 mM Tris/HCl pH 7.4 at 25° C., 12.5 mM MgCl2, 1 mM EDTA, 0.2% BSA). […] Non-specific binding was determined in the presence of 10 μM propranolol. […] Filter plates were washed three times with filtration buffer (75 mM Tris/HCl pH 7.4 at 4° C., 12.5 mM MgCl2, 1 mM EDTA) to remove unbound radioactivity. The plates were then dried and 50 μL of Microscint-20 liquid scintillation fluid (Packard BioScience Co., Meriden, Conn.) was added and plates were counted in a Packard Topcount liquid scintillation counter (Packard BioScience Co., Meriden, Conn.). Binding data were analyzed by nonlinear regression analysis with the GraphPad Prism Software package (GraphPad Software, Inc., San Diego, Calif.) using the 3-parameter model for one-site competition. The curve minimum was fixed to the value for nonspecific binding, as determined in the presence of 10 μM propranolol. […]

[2] = target: T2, human β2 adrenergic receptor (Homo sapiens, UniProt P07550); assay: as above; conditions: [3H]-dihydroalprenolol 1 nM
T2 construct: expressed in transfected cells; host or cells: HEK-293
Method: as §1, §2

[3] = target: T3, human β3 adrenergic receptor (Homo sapiens, UniProt P13945); assay: as above; conditions: [125I]-(−)-iodocyanopindolol 0.5 nM
T3 construct: expressed in transfected cells; host or cells: CHO / CHO-K1
Method: as §1, §2

[4] = target: T4, human β2 adrenergic receptor (endogenous, BEAS-2B cells) (Homo sapiens, UniProt P07550); assay: Whole-cell cAMP Flashplate assay with lung epithelial cell line (BEAS-2B); type: cell-based
T4 construct: using a cell line expressing endogenous levels of the β2 adrenergic receptor; host or cells: BEAS-2B human lung epithelial cell line
Method: In this assay, the agonist potency and intrinsic activity of a test compound were determined using a cell line expressing endogenous levels of the β2 adrenergic receptor.
On the day of the assay, cells were rinsed with PBS, lifted by scraping with 5 mM EDTA in PBS, and counted. Cells were pelleted by centrifugation at 1,000 rpm and re-suspended in stimulation buffer pre-warmed to 37° C. at a final concentration of 600,000 cells/mL. Cells were used at a final concentration of 100,000 to 120,000 cells/well in this assay. […] Test compounds were tested in the assay at 11 different concentrations, ranging from 10 μM to 10 pM. Reactions were incubated for 10 min at 37° C. and stopped by addition of 100 μL of ice-cold detection buffer. Plates were sealed, incubated over night at 4° C. and counted the next morning in a Topcount scintillation counter (Packard BioScience Co., Meriden, Conn.). […] Data were analyzed by nonlinear regression analysis with the GraphPad Prism Software package (GraphPad Software, Inc., San Diego, Calif.) using the 4-parameter model for sigmoidal dose-response.

T4 sequence (P07550 whole entry): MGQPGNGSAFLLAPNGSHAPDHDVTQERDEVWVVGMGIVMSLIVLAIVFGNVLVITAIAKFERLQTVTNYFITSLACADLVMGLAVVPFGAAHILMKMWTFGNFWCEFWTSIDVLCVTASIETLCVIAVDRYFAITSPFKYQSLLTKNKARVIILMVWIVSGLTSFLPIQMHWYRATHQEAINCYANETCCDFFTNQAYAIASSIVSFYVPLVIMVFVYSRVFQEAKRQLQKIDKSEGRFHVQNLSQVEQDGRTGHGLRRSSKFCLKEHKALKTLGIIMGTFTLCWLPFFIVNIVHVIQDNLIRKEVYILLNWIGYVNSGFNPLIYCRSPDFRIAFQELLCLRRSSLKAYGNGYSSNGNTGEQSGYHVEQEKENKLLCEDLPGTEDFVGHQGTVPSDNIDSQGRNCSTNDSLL
T3 sequence (P13945 whole entry): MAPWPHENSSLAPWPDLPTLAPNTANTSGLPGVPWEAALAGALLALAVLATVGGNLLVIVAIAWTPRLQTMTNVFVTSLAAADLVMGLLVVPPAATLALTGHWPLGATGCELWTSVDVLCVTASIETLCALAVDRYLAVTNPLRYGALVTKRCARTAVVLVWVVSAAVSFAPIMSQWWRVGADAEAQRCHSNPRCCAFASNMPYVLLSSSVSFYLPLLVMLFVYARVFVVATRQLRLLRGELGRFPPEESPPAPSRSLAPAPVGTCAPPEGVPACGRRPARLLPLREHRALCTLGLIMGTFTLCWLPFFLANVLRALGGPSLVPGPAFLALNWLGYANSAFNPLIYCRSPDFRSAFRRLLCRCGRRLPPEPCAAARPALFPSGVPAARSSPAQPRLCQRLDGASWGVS
T2 sequence (P07550 whole entry): as the sequence (P07550 whole entry) above
T1 sequence (P08588 whole entry): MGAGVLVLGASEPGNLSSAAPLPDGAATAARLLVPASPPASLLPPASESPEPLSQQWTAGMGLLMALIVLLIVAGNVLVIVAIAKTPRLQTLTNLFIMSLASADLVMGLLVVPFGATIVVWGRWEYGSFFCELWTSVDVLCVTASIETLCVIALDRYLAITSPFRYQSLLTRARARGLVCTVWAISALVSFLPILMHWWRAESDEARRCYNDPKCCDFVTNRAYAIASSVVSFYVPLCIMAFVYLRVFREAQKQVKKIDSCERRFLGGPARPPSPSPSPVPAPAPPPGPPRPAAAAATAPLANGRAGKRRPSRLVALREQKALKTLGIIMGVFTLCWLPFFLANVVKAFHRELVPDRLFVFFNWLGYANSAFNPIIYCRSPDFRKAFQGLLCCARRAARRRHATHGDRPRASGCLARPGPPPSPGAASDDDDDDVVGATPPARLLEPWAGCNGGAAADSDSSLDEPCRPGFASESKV

- Ki [1]: > 1000 nM
- Ki [2]: < 10 nM
- Ki [3]: > 1000 nM
- EC50 ([4]; cAMP): < 10 nM
- intrinsic activity ([4]; compared with full β2 agonist isoproterenol (1.0)): greater than 0.3
SMILES: Cc1cc(NC(=O)CCN2CCC(OC(=O)Nc3ccccc3-c3ccccc3)CC2)c(C)cc1CNC[C@H](O)c1ccc(O)c(NC=O)c1 [compound of formula I, biphenyl-2-ylcarbamic acid 1-[2-(4-{[(R)-2-(3-formylamino-4-hydroxyphenyl)-2-hydroxyethylamino]methyl}-2,5-dimethylphenylcarbamoyl)ethyl]-piperidin-4-yl ester]
